In ChEMBL document CHEMBL1154198, “Chemical genetics of Plasmodium falciparum” (Nature, 2010):

What was measured:
[1] = system: Plasmodium falciparum; assay: ST_JUDE: Plasmodium falciparum 3D7 EC50 (uM) as measured by SYBR green dye; assay type: functional, organism-based
[2] = system: Plasmodium falciparum; assay: ST_JUDE: Plasmodium falciparum K1 EC50 (uM) as measured by SYBR green dye; assay type: functional, organism-based

| Structure (SMILES) | EC50 [1] | EC50 [2] |
| --- | --- | --- |
| Cc1ccc2nc(-c3cccnc3)cc(C(=O)Nc3ccc(S(=O)(=O)NC(C)(C)C)cc3)c2c1 | > 15 µM | > 15 µM |
| CCOc1ccccc1NC(=S)N1CCN(c2ccc(OC)cc2)C(C)C1 (stereo unspecified) | 2.85 µM | 4.26 µM |
| C[n+]1ccccc1/C=C/c1ccc(Br)cc1 | 1.4 µM | 1.46 µM |
| COc1ccc(Cl)cc1NC(=O)C1c2ccccc2C(=O)N(CC(C)C)C1c1cccs1 (stereo unspecified) | 0.367 µM | 0.386 µM |
| CCOC(=O)C(C)Oc1cccc2c(=O)n(CC(=O)Nc3ccccc3C(F)(F)F)ccc12 (stereo unspecified) | > 15 µM | > 15 µM |
| CCN1C=CC(=Cc2ccc3cc(C)ccc3[n+]2C)C=C1 | 0.265 µM | 0.106 µM |
| Oc1ccc(Cl)cc1Nc1nc(C(F)(F)F)nc2ccccc12 | 1.2 µM | 0.638 µM |
| O=Cc1ccc2noc(-c3ccc(Cl)cc3)c2c1 | > 15 µM | > 15 µM |
| COC(=O)c1c(S(=O)(=O)N2CCCN(C)CC2)sc2c1CCN(CC(C)c1ccccc1)C2 (stereo unspecified) | > 15 µM | > 15 µM |
| CCc1cc(-c2[nH]nc(C)c2Oc2ccccc2)c(O)cc1OC(C)C | 3.66 µM | 1.46 µM |
| CCOc1ccc(/C=c2\sc3n(c2=O)CN(c2cccc(F)c2)CN=3)cc1 | > 15 µM | > 15 µM |
| Cc1cn2c(nc3c2c(=O)n(Cc2ccc(Br)cc2)c(=O)n3C)o1 | > 15 µM | > 15 µM |
| O=C(Nc1ccc(N2CCCCC2)c(Cl)c1)c1ccc(F)cc1 | > 15 µM | 0.801 µM |
| O=[N+]([O-])c1nonc1NCn1nnc2ccccc21 | 5.07 µM | 7.28 µM |
| CC(=O)Nc1ccc(NC(=O)CSc2nn3c(=O)c(C)nnc3s2)cc1 | > 15 µM | 4.96 µM |
| CC(C)(CO)CN1CCC(C(=O)Nc2ccc(-c3nc4ccccc4[nH]3)cc2)CC1 | 6.81 µM | > 15 µM |
| COc1ccc(S(=O)(=O)Nc2ccc(Nc3nc(C)cc(Nc4ccc(C)cc4)n3)cc2)cc1 | 0.618 µM | 7.51 µM |
| C/C(=N/NC(N)=S)C1C(=O)c2ccccc2C1=O | > 15 µM | > 15 µM |
| O=C(Nc1cc(Cl)cc(Cl)c1)Nc1ccc(Cl)c(Cl)c1 | 0.772 µM | 0.496 µM |
| CCOC(=O)C1=C(C)N=c2s/c(=C\c3cc(OC)ccc3O)c(=O)n2C1c1ccccc1 (stereo unspecified) | > 15 µM | > 15 µM |
| CCN(CC)c1cc(C)c2cc(NC(=O)c3cccc(OC)c3)ccc2n1 | 4.77 µM | > 15 µM |

| Structure (SMILES) | EC50 [1] | EC50 [2] |
| --- | --- | --- |
| CC1(C)CC(=O)C2=C(C1)OC(N)=C(C#N)C2c1ccc(F)cc1F (stereo unspecified) | > 15 µM | > 15 µM |
| O=C(Nc1ccc(-c2nc3cc(NC(=O)c4ccc(Br)o4)ccc3[nH]2)cc1)c1ccc(Br)o1 | 2.59 µM | 3.23 µM |
| Oc1cccc(/C=C/c2ccc3cccc(O)c3n2)c1 | > 15 µM | 5.88 µM |
| COc1ccc(CN2CCN(Cc3ccccc3)CC2)c(O)c1 | 1.09 µM | 0.754 µM |
| CCCC(=O)NC(c1ccc(Cl)cc1Cl)c1ccc2cccnc2c1O (stereo unspecified) | 2.24 µM | 3.57 µM |
| COc1ccc(S(=O)(=O)/N=C2/C=C(Sc3nc[nH]n3)C(=O)c3ccccc32)cc1 | 1.94 µM | 2.34 µM |
| CN(CCO)CCCCOc1ccc2c(c1)C(=O)c1cc(OCCCCN(C)CCO)ccc1-2 | > 15 µM | 3.64 µM |
| CCN1CCN(c2cc(C)c3cc(NC(=S)NCc4cc(OC)ccc4OC)ccc3n2)CC1 | 3.07 µM | 9.01 µM |
| O=[N+]([O-])c1ccc(O)c(-c2cc(C(F)(F)F)nc(-c3ccccc3)n2)c1 | 1.75 µM | 3.25 µM |
| CCN1CCN(c2cc(C)c3cc(NC(=S)N4CCC(N5CCCCC5)CC4)ccc3n2)CC1 | 5.91 µM | 7.89 µM |
| Cc1c(N)cc[n+](CC(=O)c2ccccc2)c1C | > 15 µM | 5.97 µM |
| Fc1ccccc1Nc1nc(NCc2ccccc2)c2ccccc2n1 | 3.46 µM | 9.11 µM |
| COc1ccc(-c2nnc3c4ccccc4c(C)nn23)cc1S(=O)(=O)N1CCCCC1 | > 15 µM | > 15 µM |
| COc1ccc(NC(=O)c2sc3ccccc3c2Cl)c(OC)c1 | > 15 µM | > 15 µM |
| CCCN1CCC(N2CCCC(C(=O)c3ccc4cc(OC)ccc4c3)C2)CC1 (stereo unspecified) | 5 µM | > 15 µM |
| CCS(=O)(=O)c1ccc(OC)c(/N=N/c2ccc(O)c3ncccc23)c1 | 4.96 µM | > 15 µM |
| C=CCn1c(SCC(=O)Nc2ccccc2OC)nc2sc(C)cc2c1=O | 0.722 µM | 4.01 µM |
| COc1cc(Br)c(C2C(C#N)=C(N)Oc3cc(O)ccc32)cc1OC (stereo unspecified) | > 15 µM | 5.8 µM |
| C=CC[n+]1c(C=C2C=CC=CN2C)sc2ccccc21 | 1.52 µM | 0.879 µM |
| CC(C)OCCNC(=O)CC1C(=O)NCCN1Cc1cccc(C(F)(F)F)c1 (stereo unspecified) | > 15 µM | > 15 µM |
| COc1ccccc1/C=C/CN1CCC2(CCC(CNC(=O)C3CCOCC3)O2)CC1 (stereo unspecified) | > 15 µM | > 15 µM |

| Structure (SMILES) | EC50 [1] | EC50 [2] |
| --- | --- | --- |
| Cc1ccc2ccc(C(Nc3ccccn3)c3cccc(Br)c3)c(O)c2n1 (stereo unspecified) | > 15 µM | 4.78 µM |
| CC(C)CN1CCN(Cc2cc(Cl)ccc2O)CC1CCO (stereo unspecified) | > 15 µM | 4.82 µM |
| CN1CCN(c2nc(Nc3ccc(F)cc3)c3cnn(-c4ccccc4)c3n2)CC1 | 1.49 µM | 4.27 µM |
| COc1ccc(Cl)cc1N(C)C(=O)c1cc2c(s1)-c1ccccc1S(=O)(=O)C2 | 1.35 µM | 1.78 µM |
| COCc1cc(CN2CCN(c3cccc(C(F)(F)F)c3)CC2)c(O)c2ncccc12 | 1.82 µM | 2.25 µM |
| Cc1ccnc(NC(c2ccc([N+](=O)[O-])cc2)c2ccc3cccnc3c2O)c1 (stereo unspecified) | 1.81 µM | 3.7 µM |
| CCN(CC)CCCNc1nc2cc(OC)c(OC)cc2c2nc(-c3ccccc3)nn12 | > 15 µM | > 15 µM |
| COC(=O)C1=C(C)N=c2s/c(=C\c3ccccc3OC(C)=O)c(=O)n2C1c1ccccc1Cl (stereo unspecified) | > 15 µM | > 15 µM |
| CCOc1ccc(Nc2cc(C)nc(-n3nc(C)cc3C)n2)cc1 | 5.02 µM | 4.99 µM |
| CCOc1ccc(N(C(C)=O)C2=C(N3CCCCC3)C(=O)c3ccccc3C2=O)cc1 | 0.542 µM | > 15 µM |
| CN(C)CCCNCc1ccc2[nH]c3c(c2c1)CCCC3 | 3.4 µM | > 15 µM |
| Cc1ccccc1C(=O)N(Cc1cccnc1)c1nc2c(F)cccc2s1 | 4.67 µM | > 15 µM |
| Cc1ccc(S(=O)(=O)N(CC(=O)N2CCCCCC2)Cc2ccc(Cl)cc2)cc1 | > 15 µM | > 15 µM |
| Cn1c(-c2ccc([N+](=O)[O-])cc2)[n+](C)c2ccccc21 | > 15 µM | 2.67 µM |
| COc1cc2c(cc1OC)C(C(=O)Nc1ccc(C(F)(F)F)cc1)C(c1cccs1)N(C)C2=O (stereo unspecified) | 2.34 µM | 3.05 µM |
| O=C(CSc1nccn1-c1ccc([N+](=O)[O-])cc1)N1CCc2ccccc21 | > 15 µM | > 15 µM |
| COc1ccccc1N1CCN(C(CNS(=O)(=O)c2ccc(Cl)cc2)c2cccnc2)CC1 (stereo unspecified) | > 15 µM | 4.64 µM |
| CCCCOc1ccc(C(=O)Nc2ccccc2Oc2ccccc2)cc1 | > 15 µM | 1.75 µM |
| Cc1nc2ccc(OCC(C)C)cc2c(O)c1CN(C)C1CCN(C)CC1 | > 15 µM | > 15 µM |
| CCN1/C(=C/c2cccc[n+]2C)Sc2ccc(C)cc21 | 0.738 µM | 0.436 µM |
| COc1ccc(CCNC(=S)Nc2ccccc2Cl)cc1 | 4.88 µM | 4.8 µM |
